Measurements reported in patent US5491146A, “Hydroxylated erythro-hydroxynonyladenines and related analogs” (Cypros Pharmaceutical Corporation, priority 1994, dated 1996).
pKi: −log10 of the molar value. Read-outs that look alike come from different tables or passages of the source.

Experiments:
[1] = biological target: T1, calf intestinal ADA (Type III, Sigma Chemical Company) (Bos taurus, UniProt P56658); experiment: Testing for ADA inhibition, direct spectrophotometric assay at 265 nm; assay type: biochemical; details: for pKi: calf intestinal ADA, 30° C.; for inhibition of ADA activity (in words): tested as in Example 2
T1 construct: purchased Sigma Chemical Company Type III; host or cells: calf intestine
T1 sequence (P56658 1-363): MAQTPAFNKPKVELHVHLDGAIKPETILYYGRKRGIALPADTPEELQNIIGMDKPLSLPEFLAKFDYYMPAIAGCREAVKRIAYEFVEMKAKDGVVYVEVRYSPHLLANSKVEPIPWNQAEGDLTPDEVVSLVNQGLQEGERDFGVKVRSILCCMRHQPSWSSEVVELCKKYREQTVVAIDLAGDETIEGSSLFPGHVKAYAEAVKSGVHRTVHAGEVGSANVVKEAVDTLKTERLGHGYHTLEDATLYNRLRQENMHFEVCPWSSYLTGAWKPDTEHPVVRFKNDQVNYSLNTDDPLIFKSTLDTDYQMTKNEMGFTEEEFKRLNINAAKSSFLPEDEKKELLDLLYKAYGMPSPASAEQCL
Method: Compounds [10] (the 9-hydroxy analog), [23] (the 8-hydroxy analog), and [14] (the 8,9-dihydroxy analog) were tested for ADA inhibition activity, using calf intestinal ADA (Type III, Sigma Chemical Company) measured at 30° C. by direct spectrophotometric assays at 265 nm, as described in Harriman et al 1992.
Several of the analogs described in Example 3 were tested for inhibition of the adenosine deaminase (ADA) enzyme, using the procedures described in Example 2.

[2] = test system: intact hearts from male Sprague-Dawley rats; experiment: Langendorf isolated perfused heart, simulated ischemia 20 minutes then reoxygenation; design: species or system rat; details: for % fibr.: isolated rat hearts, 10 min drug treatment, 20 min ischemia; for # fibrillating: number of hearts fibrillating out of Total #
Source text: The tests carried out by Dr. Rodgers used a widely-used protocol known as a "Langendorf" preparation, which involves removing intact hearts from sacrificed lab animals (male Sprague-Dawley rats were used), and perfusing the hearts with liquids containing controlled quantities (or deficits) of oxygen and glucose for fixed periods of time. […] The left atrium is filled at 15 cm H2 O pressure, and the left ventricle ejects into a buffer-filled column against a pressure which equates to 72 mm Hg, except during ischemic periods. The perfusate was Krebs-Henseleit buffer with HCO3 (25 mM), Ca^++ (2.2 mM), and glucose (10 mM). […] Pefusate and ambient temperatures were held at 37° C. and the hearts were allowed to beat spontaneously.
Following stabilization and treatment, the hearts were subjected to simulated ischemia for 20 minutes; no oxygen was added to the perfusate during this period. When the ischemic period ended, oxygen was again added to the perfusion buffer, and the following parameters were measured over a period of 10 minutes:
LVPP--left ventricular pulse pressures (time-dependent pressures, calculated as peak pressure minus diastolic pressure, in mm Hg, millimeters of mercury column)
LVEDP--left ventricular end diastolic pressure (i.e, time-dependent pressures as the ventricle relaxed during diastolic filling, in mm Hg)
CFR--coronary flow rate (mL/min)
HR--spontaneous heartbeat rate (beats/min)
ECG--electrocardiogram (surface potential, in mV)

[3] = biological target: adenosine deaminase (ADA); details: read-out: Ki value (ADA); background statement; cited from earlier work
[4] = mammalian bloodstream; cited from earlier work
[5] = animals; cited from earlier work
[6] = read-out: Ki values (ADA inhibition)
[7] = read-out: Ki value (ADA inhibition)
[8] = isolated rat hearts after ischemia

Row | pKi [1, 6] | inhibition of ADA activity (in words) [1] | pKi [1, 7] | Compound | % fibr. [2] [%] | # fibrillating [2] | also measured
1 | 8.43 | potency in the desired range |  | C[C@H](O)[C@@H](CCCCCCCl)n1cnc2c(N)ncnc21 [Compound 29, 9-[9-chloro-2(S)-hydroxy-3(R)-nonyl]adenine] |  |  | 
2 | 7.96 | shown to inhibit ADA activity | 7.96 | CC(O)CCCC[C@H]([C@H](C)O)n1cnc2c(N)ncnc21 (single isomer, unassigned) [Compound 23] |  |  | 
3 | 8.22 | effective inhibitor of ADA activity | 8.22 | C[C@H](O)[C@@H](CCCCC(O)CO)n1cnc2c(N)ncnc21 (single isomer, unassigned) [Compound 14] |  |  | 
4 |  | potency in the desired range |  | C[C@H](O)[C@@H](CCCCCCOC(=O)c1ccccc1)n1cnc2c(N)ncnc21 [Compound 25, 9-[9-Benzoyloxy-2(S)-hydroxy-3(R)-nonyl]adenine] |  |  | 
5 | 8.30 | potency in the desired range |  | COC(=O)CCCCC[C@H]([C@H](C)O)n1cnc2c(N)ncnc21 [Compound 31] |  |  | 

Continued, compound first:

Row | Compound | pKi [1, 6] | inhibition of ADA activity (in words) [1] | pKi [1, 7] | % fibr. [2] [%] | # fibrillating [2] | also measured
6 | C=CCCCC[C@H]([C@H](C)O)n1cnc2c(N)ncnc21 [Compound 32, 9-[2(S)-hydroxy-3(R)-non-8-enyl]adenine] |  | potency in the desired range |  |  |  | pKi ([1]; Ki values (ADA inhibition)): 8.60
7 | CCCCCC[C@H]([C@H](C)O)n1cnc2c(N)ncnc21 (relative stereo) [EHNA, erythro-hydroxynonyladenine] |  |  |  | 14 | 1 | LVPP (left ventricular pulse pressure) after ischemia [2, 8]: moderate increase; coronary flow rate after ischemia [2, 8]: moderate increase; incidence of fibrillation (in words) [2, 8]: reduced the incidence of fibrillation; pKi [3]: ~8.40; metabolism and clearance from bloodstream [4]: metabolized and cleared from the mammalian bloodstream fairly rapidly
8 | OC[C@H]1O[C@@H](n2cnc3c2NC=NC[C@H]3O)C[C@@H]1O [dCF, deoxycoformycin] |  |  |  |  |  | toxic side effects [5]: serious and unpredictable toxic side effects in some animals
9 | CCN(CC)C(=S)SSC(=S)N(CC)CC [Disulfiram, disulfiram] |  |  |  | 40 | 2 | 
10 | C[C@H](O)[C@@H](CCCCCCO)n1cnc2c(N)ncnc21 [Compound 10] | 8.47 | effective inhibitor of ADA activity | 8.47 | 11 | 1 | LVPP (left ventricular pulse pressure) after ischemia [2, 8]: moderate increase; coronary flow rate after ischemia [2, 8]: moderate increase; incidence of fibrillation (in words) [2, 8]: reduced the incidence of fibrillation; LVEDP (left ventricular end diastolic pressure), protection against muscle stiffening ([2]; isolated rat hearts after ischemia, compared with EHNA): significantly higher level of protection against muscle stiffening than unmodified EHNA
